Measurements taken from US7084172B2, “Bioprecursors for percutaneous application” (Pierre Fabre Dermo-Cosmetique, priority 2001, dated 2006).

Test system: HaCaT keratinocyte line
Assay: Enzymatic hydrolysis by esterase activity in HaCaT keratinocytes
Format: in vitro ADME, human
Procedure: 150 μl of a 1 mM solution in dimethyl sulphoxide (DMSO) are placed in a dish containing an HaCaT keratinocyte line (75 cm^2) in 15 ml of serum alone. The cells are placed in the incubator at 37° C. for 24 hours. The medium is extracted with 15 ml of ethyl acetate. The organic phase is then isolated and evaporated off.
The cells are extracted by sonication into 2×15 ml of an ice-cold mixture consisting of chloroform and methanol (1:2.5). After centrifugation, the organic phase collected is evaporated to dryness. For each test, a control is performed on a dish containing cells and a substrate-free medium to take account of a possible chemical degradation of the substrate.
The presence of esterase activity in the human keratinocytes is checked by means of a substrate, 4-methylumbelliferyl palmitate. The precursor according to the invention, used as pseudosubstrate, is the tocopheryl retinyl succinate prepared according to example 1.

Row | Structure (SMILES) | Degree of hydrolysis in 24 hours of incubation (150 μl of 1 mM DMSO solution in 15 ml serum, HaCaT keratinocytes, 37° C., 24 hours) | Degree of hydrolysis in 24 hours of incubation (human, 24 h, 10 µM)
1 | CCCCCCCCCCCCCCCC(=O)Oc1ccc2c(C)cc(=O)oc2c1 [4-Methylumbelliferyl palmitate, 4-methylumbelliferyl palmitate] | 2.7% ± 2% | 
2 | CC1=C(/C=C/C(C)=C/C=C/C(C)=C/COC(=O)CCC(=O)Oc2c(C)c(C)c3c(c2C)CCC(C)(CCCC(C)CCCC(C)CC(C)C)O3)C(C)(C)CCC1 (centres unmarked) [Tocopheryl retinyl succinate, O-(4-Oxo-4-{[2,5,7,8-tetramethyl-2-(4,8,12-trimethyltridecyl)-3,4-dihydro-2H-chromen-6-yl]oxy}butanoyl)retinol] |  | 5% ± 3%
